Assay results taken from patent US20250042848A1, “DEUTERATED FUNCTIONALIZED DERIVATIVES OF alpha-ALANINE, IN [sequence] FOR THE TREATMENT OF NEUROLOGICAL DISEASES” (UNIWERSYTET JAGIELLONSKI, priority 2021, published 2025).

Key:
[1] = system: maximal electroshock seizures in mice; experiment: Maximal electroshock seizure test (MES); format: in vivo
Method: (§1) Initial screening was performed on groups of 4 mice. The mean effective dose (ED50) in a given test and the neurotoxic dose in the rotarod test (TD50) were estimated on the basis of the results obtained on 3-4 groups of animals consisting of 6 animals.
In the maximal electroshock seizure test (MES), the seizures were induced by 500 V, 25 mA electrical stimulus of 0.2 s in duration. The electrical pulse was generated using an electric shock generator (Rodent shocker, Type 221, Hugo Sachs Elektronik, Germany) and delivered to the animal using electrodes placed on the auricles. The study was conducted 30 minutes/2 hours after intraperitoneal administration of the compounds at various doses. During the experiment, the number of animals that experienced a seizure episode in the form of hindlimb tonic extension was counted (Łuszczki, J.J. et al. Fundam. Clin. Pharmacol. 2008, 22, 69-74).
(§2) The ED50 (effective dose) and TD50 (toxic dose) values along with the corresponding 95% confidence limits were calculated based on the Litchfield and Wilcoxon method (Litchfield, J.T.; Wilcoxon, F. J. Pharmacol. Exp. Ther. 1949, 96, 99-113). To perform a statistical evaluation of the results in the scPTZ test, one-way ANOVA variance analysis followed by Dunnett's post hoc test were used. The values were considered statistically significant if p<0.05.

[2] = system: psychomotor seizures induced by a 32 mA, 6 Hz stimulus in mice; experiment: Psychomotor seizure test 6 Hz (32 mA); format: in vivo
Method: as §1
(§3) In the psychomotor seizure test (6 Hz test), seizures were induced by a 32 mA and/or 44 mA electrical stimulus of a frequency of 6 pulses per second. An electrical pulse was generated using an electric shock generator (ECT Unit 57800; Ugo Basile, Gemonio, Italy) and delivered to the animal using corneal electrodes. Before starting the test, the eye surface was gently moistened with a solution of local anesthetic (1% lidocaine solution). The study was conducted 30 minutes/2 hours after intraperitoneal administration of the compounds at various doses. An electrical stimulus was delivered continuously for a period of 3 seconds, followed by observation of the animal for a period of 10 seconds. During the experiment, the number of animals with an episode of psychomotor convulsions was counted: motor inhibition, staggering, maintaining a sitting posture, forelimb clonus, twitching of the vibrissae and Straub-tail were observed (Leclercq, K.; Kaminski, R.M. Epilepsia 2015, 56, 310-318).
as §2

[3] = system: motor coordination of mice; experiment: Rotarod test (motor coordination, acute neurotoxicity); format: in vivo; conditions: in mg/kg
Method: as §1
The effect of the tested compounds on motor coordination was assessed in the rotarod test (May Commat, RR 0711 RotaRod, Turkey). The day before the actual experiment, the mice were trained on a rod rotating at 10 revolutions per minute (rpm) for 3 minutes. The experiment was performed 30 minutes and 2 hours after administration of the compounds. The motor coordination of the animals was tested at the speed of the rotating rod: 10 rpm for 60 seconds. The measure of neurotoxicity was the inability to stay on the rod for a given time (Łuszczki, J.J. et al. Eur. Neuropsychopharmacol. 2005, 6, 609-616).
as §2

[4] = system: psychomotor seizures induced by a 44 mA, 6 Hz stimulus in mice; experiment: Psychomotor seizure test 6 Hz (44 mA); format: in vivo; conditions: in mg/kg
Method: as §1, §3, §2

[5] = system: formalin-induced pain in mice; experiment: Formalin test (tonic pain); format: in vivo; conditions: for nociceptive response, first phase of the formalin test, % of the baseline (control): phase I (0-5 min); for nociceptive response, second phase of the formalin test, % of baseline (control): phase II (15-30 min); for ED50 (dose reducing the nociceptive response by 50%), formalin test: i.p.
Method: Pain was induced with a chemical agent by intraplantar injection of 2.5% formalin solution in mice in a constant volume of 20 μL. The animals were placed in separate, transparent observation chambers for a period of 30 minutes. The measured value was the total licking and biting time of the formalin-treated paw. The nociceptive response was counted in two time intervals: 0-5 minutes from formalin injection (phase I of the test-acute pain) and 15-30 minutes from its administration (phase II of the test-inflammatory pain). The observed inhibition of the nociceptive response-shortening the time of licking and biting the paw, was interpreted as an analgesic effect of the tested compound.
(§4) All tests/models were performed based on procedures described in the specialist literature: formalin test (Beirith et al. Eur. J. Pharmacol. 1998, 345, 233-245), capsaicin-induced pain model (Mogilski et al. Pharmacol. Biochem. Behav. 2015, 133, 99-110), oxaliplatin-induced neuropathic pain model-von Frey's test (Sałat et al. Pharmacol. Biochem. Behav. 2014, 122, 173-181), streptozotocin-induced diabetic neuropathic pain model-von Frey's test (Sałat et al. Neuropharmacology 2017, 125, 181-188; Tanabe et al. J. Pharmacol. Sci. 2008, 107, 213-220). The test group consisted of 8-10 animals.

[6] = system: oxaliplatin-induced mechanical allodynia in mice; experiment: Oxaliplatin (OXPT)-induced peripheral neuropathy model, von Frey test; format: in vivo
Method: The reaction was observed before administration and 3 hours (early phase) and 7 days (late phase) after administration of OXPT.
as §4

[7] = system: mouse liver microsomes (MLMs); experiment: In vitro metabolic stability, mouse liver microsomes; format: in vitro ADME; conditions: 120-minute incubation with MLMs, NADPH
Method: Metabolic stability assessment was performed using mouse (MLMs) and human (HLMs) liver microsomes purchased from Sigma-Aldrich (St. Louis, MO, USA). The detailed methodology is described in the literature (Kamiński et al. J. Med. Chem. 2015, 58, 5274-5286). The reaction mixture was prepared by mixing […] of the tested compound with mouse or human microsomes (1 mg/mL) in 10 mM TRIS-HCl buffer. The reaction mixture was pre-incubated for 5 min at 37° C. After the initial incubation, 50 μL of the NADPH Regeneration System (Promega, Madison, WI, USA) was added to initiate the reaction. The reaction mixture was then incubated for 120 min at 37° C. 200 μL of cold extra pure methanol was added to complete the reaction. The mixture was then centrifuged at 14,000 g for 15 min and the supernatants were analyzed using a Waters ACQUITY™ TQD LC/MS system with a TQ detector (Waters, Milford, USA). Each experiment was performed in triplicate.

[8] = 0.5 h after i.p. administration
[9] = 2.0 h after i.p. administration
[10] = 30 mg/kg, seven days after OXPT (late phase)
[11] = 30 mg/kg, three hours after OXPT (early phase)
[12] = 60 mg/kg, seven days after OXPT (late phase)
[13] = 60 mg/kg, three hours after OXPT (early phase)
[14] = 90 mg/kg, seven days after OXPT (late phase)
[15] = 90 mg/kg, three hours after OXPT (early phase)

SMILES: [2H]C1([2H])C(=O)N([C@H](C)C(=O)NCc2ccccc2)C(=O)C1([2H])[2H] [d4-(R)-1, (R)-N-benzyl-2-(2,5-dioxopyrrolidin-1-yl-3,3,4,4-d4) propanamide]
- ED50 MES [1, 8]: 43.7 mg/kg
- ED50 MES [1, 9]: 50.1 mg/kg
- ED50 6 Hz (32 mA) [2, 8]: 18.6 mg/kg
- ED50 6 Hz (32 mA) [2, 9]: 46.4 mg/kg
- TD50 Rotarod [3, 8]: 176.7
- TD50 Rotarod [3, 9]: >300
- ED50 6 Hz (44 mA) [4, 8]: 79.2
- ED50 6 Hz (44 mA) [4, 9]: 125.3
- nociceptive response, first phase of the formalin test, % of the baseline (control) ([5]; i.p. 30 mg/kg): 46.80%
- nociceptive response, second phase of the formalin test, % of baseline (control) ([5]; i.p. 30 mg/kg): 46.04%
- nociceptive response, first phase of the formalin test, % of the baseline (control) ([5]; i.p. 60 mg/kg): 49.85%
- nociceptive response, second phase of the formalin test, % of baseline (control) ([5]; i.p. 60 mg/kg): 56.06%
- nociceptive response, first phase of the formalin test, % of the baseline (control) ([5]; i.p. 90 mg/kg): 64.40%
- nociceptive response, second phase of the formalin test, % of baseline (control) ([5]; i.p. 90 mg/kg): 43.36%
- nociceptive response, first phase of the formalin test, % of the baseline (control) ([5]; i.p. 120 mg/kg): 39.68%
- nociceptive response, second phase of the formalin test, % of baseline (control) ([5]; i.p. 120 mg/kg): 30.24%
- ED50 (dose reducing the nociceptive response by 50%), formalin test ([5]; phase I): 97.9 mg/kg
- ED50 (dose reducing the nociceptive response by 50%), formalin test ([5]; phase II): 71.5 mg/kg
- pain threshold (von Frey) [6, 10]: 6.38 ± 0.50 g
- pain threshold, % of baseline [6, 10]: 123.9%
- pain threshold (von Frey) [6, 11]: 5.73 ± 0.40 g
- pain threshold, % of baseline [6, 11]: 111.3%
- pain threshold (von Frey) [6, 12]: 7.34 ± 0.42 g
- pain threshold, % of baseline [6, 12]: 119.2%
- pain threshold (von Frey) [6, 13]: 5.33 ± 0.427 g
- pain threshold, % of baseline [6, 13]: 86.5%
- pain threshold (von Frey) [6, 14]: 7.04 ± 0.31 g
- pain threshold, % of baseline [6, 14]: 110.5%
- pain threshold (von Frey) [6, 15]: 7.23 ± 0.42 g
- pain threshold, % of baseline [6, 15]: 113.5%
- metabolic stability (metabolites in UPLC chromatograms) [7]: no metabolites appeared
